In patent US20220265845A1, “AMINOTHIOLESTER COMPOUNDS AND USES THEREOF” (ADVANCED BIODESIGN, priority 2019, published 2022):

Columns and labels:
Assay in all cases: Enzymatic assay with human recombinant ALDH (NADH fluorescence), IC50
Assay type in all cases: biochemical
Settings in all cases: substrate Hexanal, NAD+, 37° C.
[1] = target: T1, Human recombinant ALDH1A1 (Homo sapiens, UniProt P00352)
T1 construct: purchased Creative BioMart, NY, USA
T1 sequence (P00352 1-501): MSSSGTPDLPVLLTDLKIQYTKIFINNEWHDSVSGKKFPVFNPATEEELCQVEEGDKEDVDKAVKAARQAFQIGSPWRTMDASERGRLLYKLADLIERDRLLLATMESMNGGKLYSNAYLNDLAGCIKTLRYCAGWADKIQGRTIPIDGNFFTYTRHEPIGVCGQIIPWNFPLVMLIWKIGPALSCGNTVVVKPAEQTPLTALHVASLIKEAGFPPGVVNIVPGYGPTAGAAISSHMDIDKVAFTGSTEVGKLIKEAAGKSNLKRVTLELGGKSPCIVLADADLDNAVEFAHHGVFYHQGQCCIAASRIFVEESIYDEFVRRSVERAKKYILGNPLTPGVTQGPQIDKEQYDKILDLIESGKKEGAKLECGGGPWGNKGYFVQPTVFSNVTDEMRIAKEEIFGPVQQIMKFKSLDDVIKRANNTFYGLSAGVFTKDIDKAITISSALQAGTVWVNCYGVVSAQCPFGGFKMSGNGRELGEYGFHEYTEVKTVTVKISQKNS
Experimental: (§1) Human recombinant ALDH1A1, ALDH1 A2, ALDH1A3, ALDH2 (Creative BioMart, NY, USA) were prepared at 1 mg/mL. The enzymatic reactions were performed using saturating concentrations of substrate. To test the enzymatic activity of the enzymes, 10 μL of enzyme was added into a reaction buffer containing 50 mM HEPES pH 7.2, 30 mM MgCl2, plus 20 mM NAD^+ cofactor and 2 mM Hexanal (Sigma-Aldrich, St. Louis, Mo., USA) in the presence or absence of the different tested compounds. Internal standards were prepared with Nicotinamide adenine dinucleotide reduce form (NADH, 500 μM, Sigma-Aldrich) in Reaction Buffer (50 mM HEPES pH 7.2, 30 mM MgCl2).
(§2) Time-dependent inhibition assays were performed for 0-2-5-10-15-20-30-45-60 min at 37° C. in 1 mL-quartz cuvette. The formation of NADH was monitored, reading samples at excitation wavelength=340 nm/emission wavelength=460 nm (fluorescence) for at least 600 sec using Cary Eclipse Varian fluorimeter.
(§3) Negative control consisted in the same reactions except that enzyme was not added (enzyme blank). To determine the slope for enzyme blank and calculate product concentration (Unit of fluorescence) the following formulae was used: […]
(§4) where Cst is the standard NADH concentration, Fst is the standard fluorescence and dF/dt is the slope of the time dependent fluorescence (S. Sotobodowska et al, 2012). The specific activity of the enzymes (μmol/min·mg-U/mg) in the absence of presence of inhibitors was calculated as follows: […]

[2] = target: T2, Human recombinant ALDH1A2 (Homo sapiens, UniProt O94788)
T2 construct: purchased Creative BioMart, NY, USA
T2 sequence (O94788 1-518): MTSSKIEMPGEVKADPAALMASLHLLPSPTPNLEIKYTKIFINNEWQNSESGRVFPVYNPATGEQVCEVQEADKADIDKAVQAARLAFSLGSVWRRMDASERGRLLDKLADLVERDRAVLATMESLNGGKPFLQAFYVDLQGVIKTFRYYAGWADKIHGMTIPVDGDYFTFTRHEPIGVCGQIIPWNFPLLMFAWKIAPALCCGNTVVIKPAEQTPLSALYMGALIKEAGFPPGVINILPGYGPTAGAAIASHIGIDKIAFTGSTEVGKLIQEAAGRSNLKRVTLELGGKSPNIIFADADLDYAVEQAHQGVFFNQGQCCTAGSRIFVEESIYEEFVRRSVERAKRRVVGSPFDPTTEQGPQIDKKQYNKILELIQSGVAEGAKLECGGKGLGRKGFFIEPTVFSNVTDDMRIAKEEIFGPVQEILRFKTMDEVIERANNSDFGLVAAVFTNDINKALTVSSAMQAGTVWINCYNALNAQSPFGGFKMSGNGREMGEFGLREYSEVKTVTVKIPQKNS
Experimental: as §1, §2, §3, §4

[3] = target: T3, Human recombinant ALDH1A3 (Homo sapiens, UniProt P47895)
T3 construct: purchased Creative BioMart, NY, USA
T3 sequence (P47895 1-512): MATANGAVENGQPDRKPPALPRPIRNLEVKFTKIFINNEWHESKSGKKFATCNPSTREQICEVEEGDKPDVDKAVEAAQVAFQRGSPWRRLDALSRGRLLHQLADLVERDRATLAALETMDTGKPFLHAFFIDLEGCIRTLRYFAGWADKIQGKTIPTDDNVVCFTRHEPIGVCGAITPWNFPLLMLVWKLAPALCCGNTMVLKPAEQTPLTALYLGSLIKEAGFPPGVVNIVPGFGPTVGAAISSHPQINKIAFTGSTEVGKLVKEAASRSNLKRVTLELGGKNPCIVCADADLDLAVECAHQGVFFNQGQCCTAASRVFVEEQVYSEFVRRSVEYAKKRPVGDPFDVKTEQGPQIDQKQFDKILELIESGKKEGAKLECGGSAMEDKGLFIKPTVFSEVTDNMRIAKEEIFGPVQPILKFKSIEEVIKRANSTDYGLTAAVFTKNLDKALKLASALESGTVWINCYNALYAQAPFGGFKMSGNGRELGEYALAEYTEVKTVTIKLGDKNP
Experimental: as §1, §2, §3, §4

[4] = target: T4, Human recombinant ALDH2 (Homo sapiens, UniProt P05091)
T4 construct: purchased Creative BioMart, NY, USA
T4 sequence (P05091 18-517): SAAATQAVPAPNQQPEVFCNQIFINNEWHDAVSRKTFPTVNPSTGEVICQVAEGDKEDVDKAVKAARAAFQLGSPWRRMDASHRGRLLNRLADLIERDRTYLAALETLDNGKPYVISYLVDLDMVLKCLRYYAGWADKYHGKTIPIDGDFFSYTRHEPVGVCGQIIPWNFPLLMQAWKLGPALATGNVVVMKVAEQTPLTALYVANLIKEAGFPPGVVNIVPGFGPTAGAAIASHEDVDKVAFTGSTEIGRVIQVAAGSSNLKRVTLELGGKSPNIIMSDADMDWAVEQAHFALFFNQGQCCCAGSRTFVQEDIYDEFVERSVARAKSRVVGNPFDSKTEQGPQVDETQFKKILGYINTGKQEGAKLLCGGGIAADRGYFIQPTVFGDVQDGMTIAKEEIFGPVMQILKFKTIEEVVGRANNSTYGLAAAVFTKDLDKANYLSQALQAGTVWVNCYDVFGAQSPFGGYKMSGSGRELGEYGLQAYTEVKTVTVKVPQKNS
Experimental: as §1, §2, §3, §4

IC50 [1] | IC50 [2] | IC50 [3] | IC50 [4] | Compound
37 ± 5 µM | 18 ± 4 µM | 20 ± 2 µM | 72 ± 9 µM | CSC(=O)C#CC(C)(C)N(C)C [DIMATE, S-methyl 4-(dimethylamino)-4-methylpent-2-ynethioate, reference compound]
3.8 ± 1.1 µM | 0.568 ± 0.09 µM | 3.4 ± 0.1 µM | 3.1 ± 0.8 µM | CSC(=O)C#CC(C)(C)N(C)CCOCc1ccccc1 [Example 3, S-methyl 4-[2-benzyloxyethyl(methyl)amino]-4-methyl-pent-2-ynethioate]
4.3 ± 0.4 µM | 1.3 ± 0.2 µM | 4.8 ± 0.1 µM | 12 ± 3 µM | CSC(=O)C#CC(C)(C)N(C)CCOCc1ccc(C)c(C)c1 [Example 5, S-methyl 4-[2-[(3,4-dimethylphenyl)methoxy]ethyl-methyl-amino]-4-methyl-pent-2-ynethioate]
